According to the CheMixHub ionic liquid set:

Assay: xn = mol fraction of the nth substance listed

CC[N+](CC)(CC)CC.F[B-](F)(F)F + CC1COC(=O)O1
101 kPa
Details | viscosity [mPa·s]
283.15 K, x1 = 0.001044 | 3.574
283.15 K, x1 = 0.001302 | 3.581
283.15 K, x1 = 0.001888 | 3.591
283.15 K, x1 = 0.003069 | 3.625
283.15 K, x1 = 0.003925 | 3.642
283.15 K, x1 = 0.005619 | 3.663
283.15 K, x1 = 0.007445 | 3.702
283.15 K, x1 = 0.009039 | 3.739
283.15 K, x1 = 0.01054 | 3.769
283.15 K, x1 = 0.01391 | 3.835
283.15 K, x2 = 0.9206 | 5.439
283.15 K, x2 = 0.9274 | 5.243
283.15 K, x2 = 0.9419 | 4.842
283.15 K, x2 = 0.9434 | 4.813
283.15 K, x2 = 0.9551 | 4.515
283.15 K, x2 = 0.9624 | 4.356
283.15 K, x2 = 0.9701 | 4.177
298.15 K, x1 = 0.001682 | 2.557
298.15 K, x1 = 0.003455 | 2.58
298.15 K, x1 = 0.004813 | 2.598
298.15 K, x1 = 0.006017 | 2.613
298.15 K, x1 = 0.007139 | 2.628
298.15 K, x1 = 0.008167 | 2.641
298.15 K, x1 = 0.009079 | 2.657
298.15 K, x1 = 0.01102 | 2.68
298.15 K, x1 = 0.01252 | 2.701
298.15 K, x1 = 0.01813 | 2.774
298.15 K, x2 = 0.9206 | 3.716
298.15 K, x2 = 0.9283 | 3.58
298.15 K, x2 = 0.9528 | 3.189
298.15 K, x2 = 0.971 | 2.924
308.15 K, x1 = 0.001119 | 2.101
308.15 K, x1 = 0.003553 | 2.127
308.15 K, x1 = 0.005754 | 2.15
308.15 K, x1 = 0.006805 | 2.161
308.15 K, x1 = 0.007615 | 2.17
308.15 K, x1 = 0.008953 | 2.182
308.15 K, x1 = 0.01146 | 2.209
308.15 K, x1 = 0.01324 | 2.228
308.15 K, x2 = 0.9174 | 3.043
308.15 K, x2 = 0.9215 | 2.977
308.15 K, x2 = 0.9382 | 2.775
308.15 K, x2 = 0.9417 | 2.728
308.15 K, x2 = 0.9539 | 2.586
308.15 K, x2 = 0.9711 | 2.396
308.15 K, x2 = 0.9798 | 2.303
313.15 K, x1 = 0.00395 | 1.953
313.15 K, x1 = 0.004693 | 1.963
313.15 K, x1 = 0.005951 | 1.972
313.15 K, x1 = 0.00774 | 1.988
313.15 K, x1 = 0.009433 | 2.003
313.15 K, x1 = 0.01082 | 2.018
313.15 K, x2 = 0.9272 | 2.638
313.15 K, x2 = 0.9371 | 2.531
313.15 K, x2 = 0.9469 | 2.429
313.15 K, x2 = 0.9574 | 2.325
313.15 K, x2 = 0.9712 | 2.185
313.15 K, x2 = 0.9797 | 2.106

CCCC[n+]1ccn(C)c1.O=S(=O)([N-]S(=O)(=O)C(F)(F)F)C(F)(F)F + CC1COC(=O)O1
101.3 kPa, x1 = 1
Details | viscosity [mPa·s]
288.15 K | 80.3
308.15 K | 33.95
328.15 K | 17.98

CCCCn1cc[n+](CCOCCOCCOCCOCC[n+]2ccn(CCCC)c2)c1.O=S(=O)([N-]S(=O)(=O)C(F)(F)F)C(F)(F)F.O=S(=O)([N-]S(=O)(=O)C(F)(F)F)C(F)(F)F + CC[n+]1ccn(C)c1.N#C[N-]C#N + O=S(=O)([N-]S(=O)(=O)C(F)(F)F)C(F)(F)F.[Li+]
100 kPa, x1 = 0.1333, x2 = 0.7621
Details | electrical conductivity [S/m]
298 K | 0.835
303 K | 0.94
313 K | 1.17
323 K | 1.52
333 K | 1.8
343 K | 2.06

CCCC[n+]1ccn(C)c1.O=S(=O)([N-]S(=O)(=O)C(F)(F)F)C(F)(F)F + CC(=O)[O-].CCCC[NH2+]CCO
101 kPa, x2 = 0
Details | viscosity [mPa·s]
278.15 K | 145.6
288.15 K | 83.44
293.15 K | 65.11
318.15 K | 24.05

CC#N + CCCC[N+]1(C)CCCC1.O=S(=O)([O-])C(F)(F)F
101 kPa, x1 = 1
Details | viscosity [mPa·s]
288.15 K | 0.371
293.15 K | 0.355
298.15 K | 0.337

CN(C)C=O + CCCCCC[n+]1ccn(C)c1.[Cl-]
101 kPa, x1 = 1
Details | viscosity [mPa·s]
288.15 K | 0.94
298.15 K | 0.82

CCCC[n+]1ccn(C)c1.F[P-](F)(F)(F)(F)F + c1ccccc1
Details | viscosity [mPa·s]
313.2 K, 100 kPa, x2 = 0.6008 | 7.7

CC#N + CCC[N+]1(C)CCCC1.O=S(=O)([N-]S(=O)(=O)C(F)(F)F)C(F)(F)F
101 kPa, x2 = 0
Details | viscosity [mPa·s]
278.15 K | 0.411
288.15 K | 0.38
298.15 K | 0.346
308.15 K | 0.311
318.15 K | 0.279
328.15 K | 0.248

CCCC[n+]1ccn(C)c1.O=S(=O)([N-]S(=O)(=O)C(F)(F)F)C(F)(F)F + O
Details | electrical conductivity [S/m] | viscosity [mPa·s]
298 K, 101 kPa, x2 = 0 | – | 50.4
298 K, 101 kPa, x2 = 0.0227 | 0.427 | –
298 K, 101 kPa, x2 = 0.0272 | 0.442 | –
298 K, 101 kPa, x2 = 0.0915 | 0.472 | –
298 K, 101 kPa, x2 = 0.1024 | 0.498 | –
333.15 K, 100 kPa, x2 = 0.257 | – | 10.68
343.15 K, 100 kPa, x2 = 0.257 | – | 8.479
353.15 K, 100 kPa, x2 = 0.257 | – | 6.903
